From patent publication US5858751A, “Compositions and methods for producing sialyltransferases” (The Regents of the University of California, priority 1995, dated 1999)

Assays:
ST3O = target: T1, ST3O (Sus scrofa, UniProt Q02745); test: Acceptor specificity of ST3O in COS-1 media
T1 sequence (Q02745 28-343 limits assumed): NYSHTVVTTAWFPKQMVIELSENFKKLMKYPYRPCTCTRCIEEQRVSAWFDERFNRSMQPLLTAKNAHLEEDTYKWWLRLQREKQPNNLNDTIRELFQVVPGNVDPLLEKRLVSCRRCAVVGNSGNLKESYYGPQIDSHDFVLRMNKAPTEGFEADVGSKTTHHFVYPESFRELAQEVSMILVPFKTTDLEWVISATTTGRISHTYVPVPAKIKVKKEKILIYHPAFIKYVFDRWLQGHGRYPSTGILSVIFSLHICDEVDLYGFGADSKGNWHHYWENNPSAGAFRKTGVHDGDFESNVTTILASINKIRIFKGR

ST3 = target: T2, ST3 (Homo sapiens, UniProt Q11206); test: Acceptor specificity of soluble ST3 (AZ3) in COS-1 media; conditions: for sialic acid incorporation by ST3 enzyme: data not shown
T2 sequence (Q11206 1-332 isoform Q11206-2): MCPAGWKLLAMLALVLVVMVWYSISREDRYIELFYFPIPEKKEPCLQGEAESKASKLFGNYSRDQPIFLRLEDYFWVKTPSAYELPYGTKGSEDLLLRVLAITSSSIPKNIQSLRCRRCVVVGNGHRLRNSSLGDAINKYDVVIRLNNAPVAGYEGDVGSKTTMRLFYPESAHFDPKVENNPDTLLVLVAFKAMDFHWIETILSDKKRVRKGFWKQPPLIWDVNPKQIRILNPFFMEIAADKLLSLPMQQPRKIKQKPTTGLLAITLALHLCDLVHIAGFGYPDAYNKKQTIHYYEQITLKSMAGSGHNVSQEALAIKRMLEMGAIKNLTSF

ST3N = test: Acceptor specificity of ST3N in COS-1 media
human ST3O = target: T3, human ST3O (Homo sapiens, UniProt Q11201); test: Acceptor specificity of soluble human ST3O; type: biochemical; conditions: acceptor 0.2 mM
T3 construct: lacked the first 44 amino acids of the open reading frame; made in house; host or cells: COS-1 cells (transient, culture medium)
T3 sequence (Q11201 45-340): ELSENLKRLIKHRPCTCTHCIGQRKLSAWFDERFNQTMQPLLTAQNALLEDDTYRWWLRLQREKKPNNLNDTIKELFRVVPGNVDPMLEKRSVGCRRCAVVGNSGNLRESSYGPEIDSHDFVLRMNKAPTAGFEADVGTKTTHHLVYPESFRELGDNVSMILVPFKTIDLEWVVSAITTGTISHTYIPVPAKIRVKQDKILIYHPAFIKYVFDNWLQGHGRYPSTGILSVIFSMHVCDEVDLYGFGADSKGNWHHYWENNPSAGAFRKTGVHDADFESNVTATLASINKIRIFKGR

porcine ST3O = target: T4, porcine ST3O (Sus scrofa, UniProt Q02745); test: Acceptor specificity of recombinant porcine ST3O; type: biochemical; conditions: acceptor 0.2 mM
T4 sequence (Q02745 28-343 limits assumed): T1 sequence (Q02745 28-343 limits assumed)

human ST3N = target: T5, human ST3N (Homo sapiens, UniProt Q11203); test: Acceptor specificity of soluble human ST3N fusion protein; conditions: acceptor 0.2 mM; relative to LNT
T5 sequence (Q11203 62-375): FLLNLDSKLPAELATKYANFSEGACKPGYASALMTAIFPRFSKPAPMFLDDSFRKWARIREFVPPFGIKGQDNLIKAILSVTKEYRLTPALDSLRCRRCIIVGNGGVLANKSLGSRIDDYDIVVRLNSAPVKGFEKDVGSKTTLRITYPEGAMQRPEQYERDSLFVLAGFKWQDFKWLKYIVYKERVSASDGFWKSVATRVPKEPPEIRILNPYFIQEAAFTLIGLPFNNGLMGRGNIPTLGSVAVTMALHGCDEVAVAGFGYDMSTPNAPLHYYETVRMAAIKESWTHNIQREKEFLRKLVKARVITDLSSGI

rat ST3N = test: Acceptor specificity of soluble rat ST3N fusion protein; conditions: acceptor 0.2 mM; relative to LNT
α2,3-N sialyltransferase = target: T6, α2,3-N sialyltransferase (Rattus norvegicus, UniProt Q02734); test: Acceptor use by soluble α2,3-N sialyltransferase secreted from COS-1 cells (pBD122); type: biochemical; conditions: concentrated COS-1 media
T6 construct: made in house; host or cells: COS-1 cells (transient, culture medium)
T6 sequence (Q02734 29-374 limits assumed): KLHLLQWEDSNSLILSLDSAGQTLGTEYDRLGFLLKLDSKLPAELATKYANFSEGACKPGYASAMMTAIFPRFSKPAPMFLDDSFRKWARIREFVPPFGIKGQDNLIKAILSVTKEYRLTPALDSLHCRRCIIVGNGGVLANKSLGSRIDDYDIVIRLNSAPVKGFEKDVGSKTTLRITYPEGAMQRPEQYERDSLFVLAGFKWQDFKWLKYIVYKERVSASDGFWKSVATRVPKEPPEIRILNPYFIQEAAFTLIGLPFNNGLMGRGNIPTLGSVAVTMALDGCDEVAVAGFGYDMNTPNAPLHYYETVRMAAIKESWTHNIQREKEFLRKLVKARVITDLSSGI

Compound	Relative rate (%) ST3O (ST3O; acceptor 0.2 mM) [%]	Relative rate (%) ST3 (ST3; acceptor 0.2 mM) [%]	Relative rate (%) ST3N (ST3N; acceptor 0.2 mM) [%]	Relative rate (%) ST3O (ST3O; acceptor 2.0 mM) [%]	Relative rate (%) ST3 (ST3; acceptor 2.0 mM) [%]	also measured
Asialofetuin: glycoprotein acceptor (Galβ1,3GalNAc-Thr/Ser and Galβ1,4GlcNAc-R)	26	92				
Galβ1,4Glcβ1-Cer [LacCer]	0.1	4	0			
Galβ1,3GalNAcβ1,4Galβ1,4Glcβ,1-Cer [Asialo-GM1]	88	64	8			Relative Activity (%) Human (human ST3O): 84%; Relative Activity (%) Porcine (porcine ST3O): 85%
intact fetuin: glycoprotein examined as acceptor						sialic acid incorporation by ST3 enzyme (ST3): not any significant amount of sialic acid incorporated
CC(=O)N[C@H]1[C@H](O[C@H]2[C@@H](O)[C@@H](CO)O[C@@H](O[C@H]3[C@H](O)[C@@H](O)C(O)O[C@@H]3CO)[C@@H]2O)O[C@H](CO)[C@@H](O[C@@H]2O[C@@H](C)[C@@H](O)[C@@H](O)[C@@H]2O)[C@@H]1O[C@@H]1O[C@H](CO)[C@H](O)[C@H](O)[C@H]1O (stereo partly drawn) [Galβ1,3(Fucα1,4)GlcNAcβ1,3Galβ1,4Glc]	0		0	0	0	Relative rate (%) ST3N (ST3N; acceptor 2.0 mM): 0%
CC(=O)N[C@H]1[C@H](O[C@H]2[C@@H](O)[C@@H](CO)O[C@@H](O[C@H]3[C@H](O)[C@@H](O)C(O)O[C@@H]3CO)[C@@H]2O)O[C@H](CO)[C@@H](O)[C@@H]1O[C@@H]1O[C@H](CO)[C@H](O)[C@H](O)[C@H]1O (stereo partly drawn) [LNT, lacto-N-tetrose]	0.5	0	100	3	2.3	Relative Activity (%) Human (human ST3N): 100%; Relative rate (%) ST3N (ST3N; acceptor 2.0 mM): 100%; Relative activity (%) Rat (rat ST3N): 100%
Asialo-α1 -acid glycoprotein: glycoprotein acceptor (Galβ1,4GlcNAc-R)	0	51				use as acceptor by secreted enzyme (α2,3-N sialyltransferase): capable of sialylating
CC(=O)N[C@H]1C(O)O[C@H](CO)[C@@H](O[C@@H]2O[C@H](CO)[C@H](O)[C@H](O)[C@H]2O)[C@@H]1O (stereo partly drawn) [Galβ1,4GlcNAc]	0	4		0.9	23	Relative Activity (%) Human (human ST3O): 0%; Relative Activity (%) Porcine (porcine ST3O): 0%
GalNAcβ1,4Galβ1,4Glcβ1-Cer [Asialo-GM2]	0.5	2	0			
CC(=O)N[C@H]1C(O)O[C@H](CO)[C@H](O)[C@@H]1O[C@@H]1O[C@H](CO)[C@H](O)[C@H](O)[C@H]1O (stereo partly drawn) [Galβ1,3GalNAc]	100	100		100	100	Relative Activity (%) Human (human ST3O): 100%; Relative Activity (%) Porcine (porcine ST3O): 100%
CC(=O)N[C@H]1C(O)O[C@H](CO)[C@@H](O)[C@@H]1O[C@@H]1O[C@H](CO)[C@H](O)[C@H](O)[C@H]1O (stereo partly drawn) [Galβ1,3GlcNAc]	2	0				
CC(=O)N[C@H]1[C@H](O[C@H]2[C@@H](O)[C@@H](CO)O[C@@H](O[C@H]3[C@H](O)[C@@H](O)C(O)O[C@@H]3CO)[C@@H]2O)O[C@H](CO)[C@@H](O[C@@H]2O[C@H](CO)[C@H](O)[C@H](O)[C@H]2O)[C@@H]1O (stereo partly drawn) [LNnT, Galβ1,4GlcNAcβ1,3Galβ1,4Glc]	0	24	4	0.5	49	Relative Activity (%) Human (human ST3N): 5%; Relative rate (%) ST3N (ST3N; acceptor 2.0 mM): 18%; Relative activity (%) Rat (rat ST3N): 4%
.varies.1 -acid glycoprotein: intact glycoprotein examined as acceptor						sialic acid incorporation by ST3 enzyme (ST3): not any significant amount of sialic acid incorporated
NeuAcα2,3Galβ1,4Glcβ1-Cer [GM3]	0.1	0	0			
GalNAcβ1,4(NeuAcα2-3)Galβ1,4Glcβ1-Cer [GM2]	0.3		0			
Galβ1,3GalNAcβ1,4(NeuAcα2-3)Galβ1,4Glcβ1-Cer [GM1]	47	27	0			Relative Activity (%) Human (human ST3O): 41%; Relative Activity (%) Porcine (porcine ST3O): 44%
CC(=O)N[C@H]1[C@H](O[C@H]2[C@@H](O)[C@@H](CO)O[C@@H](O[C@H]3[C@H](O)[C@@H](O)C(O)O[C@@H]3CO)[C@@H]2O)O[C@H](CO)[C@@H](O[C@@H]2O[C@H](CO)[C@H](O)[C@H](O)[C@H]2O)[C@@H]1O[C@@H]1O[C@@H](C)[C@@H](O)[C@@H](O)[C@@H]1O (stereo partly drawn) [Galβ1,4(Fucα1,3)GlcNAcβ1,3Galβ1,4Glc]	0	0.1	0	0	1	Relative rate (%) ST3N (ST3N; acceptor 2.0 mM): 0%
